Several values for one entry are separate records, joined by “and”; a condition that tells them apart may be missing. Identical values can stand only once.
Tests used:
[1] = molar heat capacity at constant pressure; details: 101.33 kPa, Crystal
[2] = 293 K; 101.33 kPa; Crystal; X-ray diffraction

[Nb+5].[Nb+5].[O-2].[O-2].[O-2].[O-2].[O-2].[O-2].[O-2].[Sr+2].[Sr+2] [niobium strontium oxide (Nb2Sr2O7)]
molar heat capacity at constant pressure, [1]
Details	Relaxation time	Small sample (50 mg) DSC
139.7 K	137.01 J/K/mol	–
148.6 K	144.41 J/K/mol	–
158.2 K	152.04 J/K/mol	–
168.3 K	158.82 J/K/mol	–
179 K	166.7 J/K/mol	–
190.5 K	173.8 J/K/mol	–
201.5 K	179.2 J/K/mol	–
203 K	180.19 J/K/mol	–
203.6 K	180.24 J/K/mol	–
205.7 K	181.22 J/K/mol	–
207.7 K	181.67 J/K/mol	–
209.7 K	183.21 J/K/mol	–
211.7 K	184.53 J/K/mol	–
213.8 K	185.64 J/K/mol	–
215.8 K	187.13 J/K/mol	–
217.8 K	188.51 J/K/mol	–
219.8 K	190.01 J/K/mol	–
221.8 K	191.02 J/K/mol	–
223.8 K	191.53 J/K/mol	–
225.9 K	192.06 J/K/mol	–
227.9 K	193.45 J/K/mol	–
229.9 K	193.04 J/K/mol	–
231.9 K	193.63 J/K/mol	–
233.9 K	194.26 J/K/mol	–
235.9 K	196.53 J/K/mol	–
238 K	196.42 J/K/mol	–
240 K	197.53 J/K/mol	–
242 K	197.69 J/K/mol	–
244 K	197.75 J/K/mol	–
246.1 K	198.29 J/K/mol	–
248.1 K	200 J/K/mol	–
250.1 K	200.61 J/K/mol	–
252.1 K	201.6 J/K/mol	–
254.1 K	202.35 J/K/mol	–
256.1 K	203.13 J/K/mol	–
258.1 K	203.04 J/K/mol	201.78 J/K/mol and 201.57 J/K/mol
260.2 K	205.33 J/K/mol	–
262.2 K	206.4 J/K/mol	–
264.2 K	207.59 J/K/mol	–
266.2 K	208.79 J/K/mol	–
268.2 K	209.43 J/K/mol	–
268.3 K	–	206.1 J/K/mol and 204.8 J/K/mol
270.2 K	210.44 J/K/mol	–
272.2 K	211.82 J/K/mol	–
274.3 K	212.04 J/K/mol	–
276.3 K	212.05 J/K/mol	–
278.3 K	212.41 J/K/mol	–
278.5 K	–	208.78 J/K/mol and 208.32 J/K/mol
280.3 K	212.81 J/K/mol	–
282.3 K	212.94 J/K/mol	–
284.3 K	213.33 J/K/mol	–
286.3 K	213.1 J/K/mol	–
288.3 K	213.9 J/K/mol	–
288.7 K	–	211.87 J/K/mol and 212.56 J/K/mol
290.4 K	214.19 J/K/mol	–
292.4 K	214.81 J/K/mol	–
294.4 K	215.93 J/K/mol	–
296.4 K	216.6 J/K/mol	–
298.4 K	219.18 J/K/mol	–
298.9 K	–	216.24 J/K/mol [middle of 10 runs]
300.4 K	218.65 J/K/mol	–
309.1 K	–	220.12 J/K/mol [middle of 11 runs]
319.4 K	–	223.23 J/K/mol [middle of 9 runs]
329.6 K	–	225.99 J/K/mol [middle of 11 runs]
339.8 K	–	228.99 J/K/mol [middle of 10 runs]
350 K	–	230.93 J/K/mol [middle of 11 runs]

Details	mass density [kg/m3]
[2]	5206

Source: the NIST ThermoML archive (doi:10.1016/j.tca.2008.06.010)
